Measured values published in patent publication US20260365670A1, “EGFR INHIBITORS AND USES THEREOF” (DIZAL (JIANGSU) PHARMACEUTICAL CO., LTD., priority 2022, published 2026).
pIC50: −log10 of the molar value. Read-outs that look alike come from different tables or passages of the source.

Legend:
EGFR (C797S L858R) = biological target: T1, EGFR (C797S L858R) (Homo sapiens, UniProt P00533, C797S/L858R); assay: Inhibition of EGFR (C797S L858R) biochemical enzymatic activity (HTRF); details: 1 mM ATP; for pIC50: EGFR (C797S L858R), 1 h at room temperature, read-out: IC50 @L858-C797S
T1 construct: purchased signalchem
Outline: (§1)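 Recombinant kinases phosphorylated 1 μM biotinylated TK substrate with 1 mM ATP in buffer with 5 mM MgCl2, 1 mM MnCl2, 0.01% CHAPS, 1 mM DTT, 0.5% DMSO. Reaction ran 1 h at room temperature, stopped with EDTA-containing detection mix. HTRF 665/615 nm ratio gave IC50 via four-parameter logistic fit.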

EGFR Exon19Del/T790M = biological target: T2, EGFR Exon19Del/T790M (Homo sapiens, UniProt P00533, DEL746-750/T790M); assay: Inhibition of EGFR Exon19Del/T790M biochemical enzymatic activity (HTRF); details: 1 mM ATP; for pIC50: EGFR Exon19Del/T790M, 1 h at room temperature, read-out: IC50 @Del19-T790M
T2 construct: purchased Carna Bio
Outline: as §1

EGFR Exon19Del = biological target: T3, EGFR Exon19Del (Homo sapiens, UniProt P00533, DEL746-750); assay: Inhibition of EGFR Exon19Del biochemical enzymatic activity (HTRF); details: read-out: IC50 @Del19
T3 construct: purchased Carna Bio
Outline: as §1

EGFR wild type = biological target: T4, EGFR wild type (Homo sapiens, UniProt P00533); assay: Inhibition of EGFR wild type biochemical enzymatic activity (HTRF); details: 1 mM ATP; for pIC50: EGFR wild type, 1 h at room temperature, read-out: IC50 @WT
T4 construct: purchased Carna Bio
Outline: as §1

[1] = system: Ba/F3 cells expressing EGFR mutations; assay: Cell proliferation assay, Ba/F3 cells expressing EGFR mutations (CellTiter-Glo, 72 hours); assay type: cell-based
Outline: (§2)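 Ba/F3 cells (5000/well) and PC-9 cells (500/well, RPMI1640 with 10% FBS) were plated overnight and then dosed with a compound concentration series. Viable cells were read at day 0 (G0) and after treatment (G3). GI50 came from curve fits of G0-corrected proliferation relative to DMSO.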

EGFR[T790M/C797S/L858R] = biological target: T5, EGFR[T790M/C797S/L858R] (Homo sapiens, UniProt P00533, C797S/L858R/T790M); assay: Inhibition of EGFR[T790M/C797S/L858R] biochemical enzymatic activity (HTRF); details: 1 mM ATP; for pIC50: EGFR[T790M/C797S/L858R], 1 h at room temperature, read-out: IC50 @T790M- C797S - L858R
T5 construct: purchased Carna Bio
Outline: as §1

EGFR L858R/T790M = biological target: T6, EGFR L858R/T790M (Homo sapiens, UniProt P00533, L858R/T790M); assay: Inhibition of EGFR L858R/T790M biochemical enzymatic activity (HTRF); details: 1 mM ATP; for pIC50: EGFR L858R/T790M, 1 h at room temperature, read-out: IC50 @L858R-T790M
T6 construct: purchased Carna Bio
Outline: as §1

EGFR (d746-750 C797S) = biological target: T7, EGFR (d746-750 C797S) (Homo sapiens, UniProt P00533, C797S/DEL746-750); assay: Inhibition of EGFR (d746-750 C797S) biochemical enzymatic activity (HTRF); details: 1 mM ATP; for pIC50: EGFR (d746-750 C797S), 1 h at room temperature, read-out: IC50 @Del19-C797S
T7 construct: purchased signalchem
Outline: as §1

EGFR L858R = biological target: T8, EGFR L858R (Homo sapiens, UniProt P00533, L858R); assay: Inhibition of EGFR L858R biochemical enzymatic activity (HTRF); details: 1 mM ATP; for pIC50: 1 h at room temperature, read-out: IC50 @L858R
T8 construct: purchased Carna Bio
Outline: as §1

PC-9 = assay: Cell proliferation assay, PC-9 cells (CellTiter-Glo, 72 hours); assay type: cell-based; details: PC9 cells
Outline: as §2

[2] = biological target: T9, EGFR[T790M/C797S/d746-750] (Homo sapiens, UniProt P00533, C797S/DEL746-750/T790M); assay: Inhibition of EGFR[T790M/C797S/d746-750] biochemical enzymatic activity (HTRF); details: for pIC50: EGFR[T790M/C797S/d746-750], 1 mM ATP, 1 h at room temperature, read-out: IC50 @T790M - C797S - Del19
T9 construct: purchased Carna Bio
Outline: as §1

[3] = EGFR Exon19Del, 1 mM ATP, 1 h at room temperature

T4 sequence (P00533 25-1210): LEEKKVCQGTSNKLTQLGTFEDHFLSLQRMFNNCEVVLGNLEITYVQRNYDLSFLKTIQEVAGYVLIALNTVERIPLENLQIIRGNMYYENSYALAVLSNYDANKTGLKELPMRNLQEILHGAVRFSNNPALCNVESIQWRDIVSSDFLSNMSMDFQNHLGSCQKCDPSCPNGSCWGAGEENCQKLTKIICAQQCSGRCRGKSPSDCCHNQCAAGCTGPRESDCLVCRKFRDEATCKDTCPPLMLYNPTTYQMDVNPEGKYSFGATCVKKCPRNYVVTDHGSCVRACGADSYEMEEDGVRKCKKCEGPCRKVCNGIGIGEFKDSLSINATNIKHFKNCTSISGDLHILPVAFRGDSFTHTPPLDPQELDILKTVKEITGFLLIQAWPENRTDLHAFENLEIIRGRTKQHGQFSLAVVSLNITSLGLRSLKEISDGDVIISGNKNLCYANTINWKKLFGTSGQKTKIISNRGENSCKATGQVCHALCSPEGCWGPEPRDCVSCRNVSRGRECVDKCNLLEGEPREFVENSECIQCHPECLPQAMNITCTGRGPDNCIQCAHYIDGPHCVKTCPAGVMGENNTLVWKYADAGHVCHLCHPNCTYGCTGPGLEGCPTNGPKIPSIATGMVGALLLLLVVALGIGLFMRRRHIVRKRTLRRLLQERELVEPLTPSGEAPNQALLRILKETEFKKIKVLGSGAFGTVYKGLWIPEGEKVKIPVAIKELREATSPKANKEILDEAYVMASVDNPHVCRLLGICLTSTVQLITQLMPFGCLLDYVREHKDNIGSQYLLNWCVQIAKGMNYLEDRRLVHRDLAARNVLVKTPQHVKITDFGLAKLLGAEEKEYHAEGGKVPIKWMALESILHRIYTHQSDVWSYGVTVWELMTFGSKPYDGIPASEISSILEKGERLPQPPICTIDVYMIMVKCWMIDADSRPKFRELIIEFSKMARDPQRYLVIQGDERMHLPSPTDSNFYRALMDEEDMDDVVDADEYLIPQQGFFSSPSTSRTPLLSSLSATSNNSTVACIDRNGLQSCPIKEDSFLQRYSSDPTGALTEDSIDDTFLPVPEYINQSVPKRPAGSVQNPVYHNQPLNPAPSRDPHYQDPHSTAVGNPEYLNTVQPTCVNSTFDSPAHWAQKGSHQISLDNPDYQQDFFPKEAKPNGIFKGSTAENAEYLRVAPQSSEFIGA
T9 sequence (P00533 with tags, fused parts or gaps DEL746-750/T790M/C797S limits assumed): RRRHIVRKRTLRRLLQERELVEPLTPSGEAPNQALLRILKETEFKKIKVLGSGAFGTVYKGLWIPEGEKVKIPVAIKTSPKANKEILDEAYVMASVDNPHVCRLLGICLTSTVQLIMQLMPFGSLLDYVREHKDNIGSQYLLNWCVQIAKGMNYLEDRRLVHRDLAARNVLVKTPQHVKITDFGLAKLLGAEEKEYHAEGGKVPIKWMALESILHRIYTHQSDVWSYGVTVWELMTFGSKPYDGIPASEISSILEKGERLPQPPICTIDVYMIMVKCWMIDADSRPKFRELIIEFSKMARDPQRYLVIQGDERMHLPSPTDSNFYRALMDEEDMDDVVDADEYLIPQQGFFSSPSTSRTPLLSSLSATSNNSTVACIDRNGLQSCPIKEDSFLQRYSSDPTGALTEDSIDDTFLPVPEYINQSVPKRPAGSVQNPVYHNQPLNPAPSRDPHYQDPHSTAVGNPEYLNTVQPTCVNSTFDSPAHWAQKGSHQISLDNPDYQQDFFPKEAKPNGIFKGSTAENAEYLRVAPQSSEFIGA
T1 sequence (P00533 25-1210 C797S/L858R): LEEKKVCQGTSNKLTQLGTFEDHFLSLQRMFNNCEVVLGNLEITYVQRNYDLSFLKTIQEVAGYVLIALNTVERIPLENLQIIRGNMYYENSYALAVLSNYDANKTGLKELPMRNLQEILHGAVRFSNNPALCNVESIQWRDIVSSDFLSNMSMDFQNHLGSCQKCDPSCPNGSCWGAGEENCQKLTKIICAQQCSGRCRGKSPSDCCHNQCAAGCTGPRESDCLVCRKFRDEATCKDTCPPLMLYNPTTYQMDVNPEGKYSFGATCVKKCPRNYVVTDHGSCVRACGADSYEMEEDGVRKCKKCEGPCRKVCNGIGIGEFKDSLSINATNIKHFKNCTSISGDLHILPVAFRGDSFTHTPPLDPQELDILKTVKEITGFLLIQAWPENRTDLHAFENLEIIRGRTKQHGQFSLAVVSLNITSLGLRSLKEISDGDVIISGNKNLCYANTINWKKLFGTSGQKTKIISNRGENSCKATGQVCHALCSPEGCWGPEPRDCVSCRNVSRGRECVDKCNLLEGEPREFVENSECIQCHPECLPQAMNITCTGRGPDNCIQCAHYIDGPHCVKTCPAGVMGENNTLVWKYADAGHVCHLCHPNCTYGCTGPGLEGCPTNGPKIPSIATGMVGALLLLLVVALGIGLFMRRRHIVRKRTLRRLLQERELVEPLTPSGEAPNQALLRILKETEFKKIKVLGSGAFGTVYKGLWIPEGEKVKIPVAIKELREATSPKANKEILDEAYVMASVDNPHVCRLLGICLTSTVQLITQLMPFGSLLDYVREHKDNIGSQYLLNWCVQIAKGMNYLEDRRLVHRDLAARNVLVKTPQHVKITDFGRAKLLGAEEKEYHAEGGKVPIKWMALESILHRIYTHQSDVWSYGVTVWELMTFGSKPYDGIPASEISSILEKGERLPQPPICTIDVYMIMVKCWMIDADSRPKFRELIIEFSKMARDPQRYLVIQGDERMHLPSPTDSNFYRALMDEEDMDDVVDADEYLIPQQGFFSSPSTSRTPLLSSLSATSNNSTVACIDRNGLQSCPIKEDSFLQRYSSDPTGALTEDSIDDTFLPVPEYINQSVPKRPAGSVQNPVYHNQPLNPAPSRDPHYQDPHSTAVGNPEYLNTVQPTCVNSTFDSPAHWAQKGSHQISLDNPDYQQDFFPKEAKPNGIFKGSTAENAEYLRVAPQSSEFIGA
T8 sequence (P00533 25-1210 L858R): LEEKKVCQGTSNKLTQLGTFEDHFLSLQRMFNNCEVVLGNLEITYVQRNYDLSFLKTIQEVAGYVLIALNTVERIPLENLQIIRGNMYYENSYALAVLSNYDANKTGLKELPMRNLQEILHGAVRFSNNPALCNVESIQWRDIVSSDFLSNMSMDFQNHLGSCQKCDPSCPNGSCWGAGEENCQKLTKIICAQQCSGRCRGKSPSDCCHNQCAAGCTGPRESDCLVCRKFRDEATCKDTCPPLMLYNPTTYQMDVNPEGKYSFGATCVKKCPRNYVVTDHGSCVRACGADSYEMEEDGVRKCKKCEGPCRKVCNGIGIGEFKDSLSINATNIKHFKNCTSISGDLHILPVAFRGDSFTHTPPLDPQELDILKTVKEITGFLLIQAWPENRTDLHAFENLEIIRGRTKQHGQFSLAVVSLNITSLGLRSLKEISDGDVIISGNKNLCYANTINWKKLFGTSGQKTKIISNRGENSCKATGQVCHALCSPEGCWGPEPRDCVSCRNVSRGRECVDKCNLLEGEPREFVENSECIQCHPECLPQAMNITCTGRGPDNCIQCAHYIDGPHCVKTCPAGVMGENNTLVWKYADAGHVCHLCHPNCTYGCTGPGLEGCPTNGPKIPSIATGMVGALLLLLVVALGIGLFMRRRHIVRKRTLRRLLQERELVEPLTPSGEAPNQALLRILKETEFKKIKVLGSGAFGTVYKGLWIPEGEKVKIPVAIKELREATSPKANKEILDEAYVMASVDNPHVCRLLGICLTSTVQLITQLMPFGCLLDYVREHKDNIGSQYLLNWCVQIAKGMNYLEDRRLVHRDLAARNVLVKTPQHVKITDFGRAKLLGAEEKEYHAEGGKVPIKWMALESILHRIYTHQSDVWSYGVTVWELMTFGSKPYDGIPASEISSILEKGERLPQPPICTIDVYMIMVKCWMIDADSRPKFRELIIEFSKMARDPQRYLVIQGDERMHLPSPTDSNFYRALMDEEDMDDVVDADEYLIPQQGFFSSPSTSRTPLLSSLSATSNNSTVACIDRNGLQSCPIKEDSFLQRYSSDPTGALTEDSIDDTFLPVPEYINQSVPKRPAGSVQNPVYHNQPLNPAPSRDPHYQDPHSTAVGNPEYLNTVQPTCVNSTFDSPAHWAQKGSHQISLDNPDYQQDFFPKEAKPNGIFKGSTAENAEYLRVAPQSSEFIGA
T7 sequence (P00533 with tags, fused parts or gaps DEL746-750/C797S limits assumed): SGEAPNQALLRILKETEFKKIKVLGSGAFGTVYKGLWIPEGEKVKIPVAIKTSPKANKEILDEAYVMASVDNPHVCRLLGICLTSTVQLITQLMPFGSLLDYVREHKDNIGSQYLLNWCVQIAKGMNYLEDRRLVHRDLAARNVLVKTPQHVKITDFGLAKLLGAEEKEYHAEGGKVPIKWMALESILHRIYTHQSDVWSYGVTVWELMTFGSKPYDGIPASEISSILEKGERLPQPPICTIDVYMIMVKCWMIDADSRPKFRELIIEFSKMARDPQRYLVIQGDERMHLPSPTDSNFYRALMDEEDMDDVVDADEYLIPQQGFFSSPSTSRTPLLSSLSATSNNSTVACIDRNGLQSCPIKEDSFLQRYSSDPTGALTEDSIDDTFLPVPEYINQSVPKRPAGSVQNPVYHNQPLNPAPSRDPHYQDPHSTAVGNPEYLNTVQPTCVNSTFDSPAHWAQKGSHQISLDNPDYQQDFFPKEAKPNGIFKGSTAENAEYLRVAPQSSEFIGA

## C[C@@H]1CCCOc2c(cnn2CC(F)(F)F)-c2cc(cn(C)c2=O)C(=O)Nc2nc3ccc(N4CCN(C)CC4)cc3n2C1 [Example A20, (11R)-11,26-Dimethyl-16-(4-methylpiperazin-1-yl)-5-(2,2,2-trifluoroethyl)-7-oxa-4,5,13,20,22,26-hexaazapentacyclo[22.3.1.0^{2,6}.0^{13,21}.0^{14,19}]octacosa-1(28),2(6),3,14,16,18,20,24-octaene-23,27-dione]
EGFR (C797S L858R); EGFR L858-C797S, 1 h, room temperature, read-out: IC50 (nM) @L858-C797S
  IC50: 132 nM
EGFR Exon19Del/T790M; EGFR Del19-T790M, 1 h, room temperature, read-out: IC50 (nM) @Del19-T790M
  IC50: 41 nM
EGFR Exon19Del; EGFR Del19, 1 mM ATP, 1 h, room temperature
  pIC50: 7.07
EGFR wild type; EGFR WT, 1 h, room temperature, read-out: IC50 (nM) @WT
  IC50: > 5000 nM
[1]; Mus musculus, BaF3, 72 h, BaF3 cells, EGFR DEL19-C797S, CellTiter-Glo, read-out: DEL19-C797S/BaF3 GI50
  GI50: 17.1 nM
[1]; Mus musculus, BaF3, 72 h, BaF3 cells, EGFR DEL19-T790-C797S, CellTiter-Glo, read-out: DEL19-T790-C797S/BaF3 GI50
  GI50: 204 nM
[1]; Mus musculus, BaF3, 72 h, BaF3 cells, EGFR L858R, CellTiter-Glo, read-out: L858R/BaF3 GI50
  GI50: 89 nM
[1]; Mus musculus, BaF3, 72 h, BaF3 cells, EGFR L858R-C797S, CellTiter-Glo, read-out: L858R-C797S/BaF3 GI50
  GI50: 87 nM
[1]; Mus musculus, BaF3, 72 h, BaF3 cells, EGFR L858R-T790-C797S, CellTiter-Glo, read-out: L858R-T790-C797S/BaF3 GI50
  GI50: 51 nM
[1]; Mus musculus, BaF3, 72 h, BaF3 cells, EGFR L858R-T790M, CellTiter-Glo, read-out: L858R-T790M/BaF3 GI50
  GI50: 39 nM
[1]; Mus musculus, BaF3, 72 h, EGFR DEL19-T790M, CellTiter-Glo, read-out: DEL19-T790M GI50
  GI50: 226 nM
EGFR[T790M/C797S/L858R]; EGFR T790M-C797S-L858R, 1 h, room temperature, read-out: IC50 (nM) @T790M- C797S - L858R
  IC50: 76 nM
EGFR L858R/T790M; EGFR L858R-T790M, 1 h, room temperature, read-out: IC50 (nM) @L858R-T790M
  IC50: 82 nM
EGFR (d746-750 C797S); EGFR Del19-C797S, 1 h, room temperature, read-out: IC50 (nM) @Del19-C797S
  IC50: 42 nM
EGFR L858R; 1 h, room temperature, read-out: IC50 (nM) @L858R
  IC50: 301 nM
PC-9; Homo sapiens, PC-9, 72 h, CellTiter-Glo, read-out: PC9 GI50
  GI50: 145 nM
[2]; EGFR T790M-C797S-Del19, 1 mM ATP, 1 h, room temperature, read-out: IC50 (nM) @T790M - C797S - Del19
  IC50: 40 nM

## Cc1cc2cc(n1)-c1cnn(C)c1OCCN1CCOCC(C1)n1c(nc3ccccc31)NC2=O (stereo not drawn) [Example B7B, 15,21-dimethyl-23,29-dioxa-2,9,11,16,20,21,26-heptaazahexacyclo[24.4.1.1^{13,17}.0^{2,10}.0^{3,8}.0^{18,22}]dotriaconta-3,5,7,9,13(32),14,16,18(22),19-nonaen-12-one]
EGFR (C797S L858R)
  pIC50: 5.35
EGFR Exon19Del/T790M
  pIC50: 7.38
EGFR Exon19Del; [3]
  pIC50: 6.06
EGFR wild type
  pIC50: < 5.30
[1]; BaF3 cells, EGFR DEL19 - C797S, read-out: GI50 DEL19 - C797S/BaF3
  GI50: 173 nM
[1]; BaF3 cells, EGFR DEL19 - T790-C797S, read-out: GI50 DEL19 - T790-C797S/BaF3
  GI50: 130 nM
[1]; BaF3 cells, EGFR L858R - C797S, read-out: GI50 L858R - C797S/BaF3
  GI50: 253 nM
[1]; BaF3 cells, EGFR L858R - T790-C797S, read-out: GI50 L858R - T790-C797S/BaF3
  GI50: 123 nM
[1]; BaF3 cells, EGFR L858R - T790M, read-out: GI50 L858R - T790M/BaF3
  GI50: 292 nM
[1]; BaF3 cells, EGFR L858R, read-out: GI50 L858R/BaF3
  GI50: 1600 nM
[1]; EGFR DEL19 - T790M, read-out: GI50 DEL19 - T790M
  GI50: 189 nM
EGFR[T790M/C797S/L858R]
  pIC50: 6.28
EGFR L858R/T790M
  pIC50: 6.04
EGFR (d746-750 C797S)
  pIC50: 6.49
EGFR L858R
  pIC50: < 5.30
PC-9; read-out: GI50 PC9
  GI50: 469 nM
[2]
  pIC50: 7.77

## Cc1cc2cc(n1)-c1cnn(C)c1OCCCCCn1c(nc3ccc4c(c31)CN(C1COC1)CC4)NC2=O [Example B18, 5,30-dimethyl-17-(oxetan-3-yl)-7-oxa-4,5,13,17,24,26,31-heptaazahexacyclo[26.3.1.0^{2,6}.0^{13,25}.0^{14,23}.0^{15,20}]dotriaconta-1(31),2(6),3,14,20,22,24,28(32),29-nonaen-27-one]
EGFR (C797S L858R)
  pIC50: < 5.30
EGFR Exon19Del/T790M
  pIC50: 7.48
EGFR Exon19Del; [3]
  pIC50: 6.03
EGFR wild type
  pIC50: < 5.30
[1]; Mus musculus, BaF3, 72 h, BaF3 cells, EGFR DEL19 - C797S, read-out: GI50 DEL19 - C797S/BaF3
  GI50: 86 nM
[1]; Mus musculus, BaF3, 72 h, BaF3 cells, EGFR DEL19 - T790-C797S, read-out: GI50 DEL19 - T790-C797S/BaF3
  GI50: 32 nM
[1]; Mus musculus, BaF3, 72 h, BaF3 cells, EGFR L858R - C797S, read-out: GI50 L858R - C797S/BaF3
  GI50: 2700 nM
[1]; Mus musculus, BaF3, 72 h, BaF3 cells, EGFR L858R - T790-C797S, read-out: GI50 L858R - T790-C797S/BaF3
  GI50: 24 nM
[1]; Mus musculus, BaF3, 72 h, BaF3 cells, EGFR L858R - T790M, read-out: GI50 L858R - T790M/BaF3
  GI50: 96 nM
[1]; Mus musculus, BaF3, 72 h, BaF3 cells, EGFR L858R, read-out: GI50 L858R/BaF3
  GI50: 432 nM
[1]; Mus musculus, BaF3, 72 h, EGFR DEL19 - T790M, read-out: GI50 DEL19 - T790M
  GI50: 12 nM
EGFR[T790M/C797S/L858R]
  pIC50: 5.70
EGFR L858R/T790M
  pIC50: < 5.30
EGFR (d746-750 C797S)
  pIC50: < 6.30
EGFR L858R
  pIC50: < 5.30
PC-9; Homo sapiens, PC-9, 72 h, read-out: GI50 PC9
  GI50: 122 nM
[2]
  pIC50: 7.51
